Consider three compounds from patent US20050113577A1, “Solid forms of slats with tyrosine kinase activity” (priority 2002, published 2005).

One data set concerns the target T1, human KDR (Homo sapiens, UniProt P35968).
T1 construct: cloning the cytoplasmic domain of the KDR kinase as an in frame fusion at the carboxy terminus of the GST gene; made in house; host or cells: Spodoptera frugiperda (Sf21) insect cells, baculovirus vector pAcG2T
As to the kind of experiment: VEGF Receptor Kinase Assay. To be noted: tested by the assays described (KDR, HUVEC, Flt-1, Flt-3); no values given. Format: biochemical. As for the experimental part: Other assays are known in the literature and could be readily performed by those of skill in the art (see, for example, Dhanabal et al., Cancer Res. 59:189-197; Xin et al., J. Biol. Chem. 274:9116-9121; Sheu et al., Anticancer Res. 18:4435-4441; Ausprunk et al., Dev. Biol. 38:237-248; Gimbrone et al., J. Natl. Cancer Inst. 52:413-427; Nicosia et al., In Vitro 18:538-549).
VEGF receptor kinase activity is measured by incorporation of radio-labeled phosphate into polyglutarnic acid, tyrosine, 4:1 (pEY) substrate. The phosphorylated pEY product is trapped onto a filter membrane and the incorporation of radio-labeled phosphate quantified by scintillation counting.
The intracellular tyrosine kinase domains of human KDR (Tennan, B. I. et al. Oncogene (1991) vol. 6, pp. 1677-1683.) and Flt-1 (Shibuya, M. et al. Oncogene (1990) vol. 5, pp. 519-524) were cloned as glutathione S-transferase (GST) gene fusion proteins. This was accomplished by cloning the cytoplasmic domain of the KDR kinase as an in frame fusion at the carboxy terminus of the GST gene. Soluble recombinant GST-kinase domain fusion proteins were expressed in Spodoptera frugiperda (Sf21) insect cells (Invitrogen) using a baculovirus expression vector (pAcG2T, Pharmingen). […]

The nature of data set [1]: Solubility in water and organic solvents at room temperature (suspended for 7 days). Format: physicochemical. On the procedure: [table] The solubility of Form A HCl Salt at room temperature was determined in water and several organic solvents that can be used in pharmaceutical processing.
Data set [2] is described as follows: Solubility in various aqueous solvent systems measured for 20 hours. Format: physicochemical. As for the experimental part: [table] The solubility of Form A in various aqueous solvent systems was measured for a period of 20 hours.
A short description of data set [3]: Partition coefficient between 1-octanol and water. Format: physicochemical. To be noted: 1-octanol/water; pH (equilibrium) 3.8 (native); 0.033 mg/mL in aqueous phase at start. On the procedure: Partition coefficient of Form A between I-octanol and water were determined at the native pH of the HCl Salt (Table III).
The nature of data set [4]: Hygroscopicity, step isotherm program 0 to 95% RH. Format: physicochemical. To be noted: 25° C. As for the experimental part:
The hygroscopicity of Form A was determined at 25° C. using a step isotherm program for relative humidities from 0 to 95% RH under nitrogen flow.

Data set [5] can be described thus: Solid form stability in suspension/slurry (XRPD). Format: physicochemical. As for the experimental part: An X-ray powder diffraction pattern of Form A is indicative of a crystalline material with multiple diffraction peaks between 5° and 30° 2-theta.

T1 sequence (P35968 786-1356 limits assumed): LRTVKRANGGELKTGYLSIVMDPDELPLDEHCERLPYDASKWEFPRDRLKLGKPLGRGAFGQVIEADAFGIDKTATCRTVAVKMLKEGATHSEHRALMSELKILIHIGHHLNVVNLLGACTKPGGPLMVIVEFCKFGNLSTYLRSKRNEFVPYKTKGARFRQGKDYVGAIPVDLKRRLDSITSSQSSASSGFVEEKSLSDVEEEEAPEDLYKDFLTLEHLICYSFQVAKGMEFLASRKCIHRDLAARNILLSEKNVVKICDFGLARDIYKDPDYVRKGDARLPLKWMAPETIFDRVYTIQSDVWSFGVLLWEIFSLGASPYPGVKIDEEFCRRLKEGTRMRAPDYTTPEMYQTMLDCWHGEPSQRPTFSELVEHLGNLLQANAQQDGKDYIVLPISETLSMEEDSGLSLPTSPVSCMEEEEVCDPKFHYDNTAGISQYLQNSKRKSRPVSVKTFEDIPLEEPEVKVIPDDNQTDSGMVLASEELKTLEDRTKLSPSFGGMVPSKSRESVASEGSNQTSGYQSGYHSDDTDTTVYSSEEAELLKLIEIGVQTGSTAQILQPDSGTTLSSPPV

Consider `CS(=O)(=O)N1CCN(Cc2ccc3[nH]c(-c4cc5ccccc5[nH]c4=O)cc3c2)CC1` [Compound 1-11, 3-[5-(4-Methanesulfonyl-piperazin-1-ylmethyl)-1H-indol-2-yl]-1H-quinolin-2-one], for which the kinase inhibitory activity result on human KDR is given as “inhibits the kinase KDR”.

As for `CS(=O)(=O)N1CCN(Cc2ccc3[nH]c(-c4cc5ccccc5[nH]c4=O)cc3c2)CC1.Cl` [Form A, hydrochloride salt of 3-[5-(4-methanesulfonyl-piperazin-1-ylmethyl)-1H-indol-2-yl]-1H-quinolin-2-one], the Solubility (as a rule, the concentration that dissolves in the medium under given conditions) was determined as 4340 µg/mL in data set [1] (Aqueous ETOH (50%)); 3990 µg/mL in data set [1] (Aqueous IPA (50%)); 130 µg/mL in data set [1] (Ethanol); 57 µg/mL in data set [1] (Isopropanol); 260 µg/mL in data set [1] (Water); 380 µg/mL in data set [2] (10% EtOH). For the same compound, the Solubility in data set [2] (10% IPA) was 470 µg/mL; in data set [2] (25% EtOH), 1060 µg/mL; in data set [2] (25% IPA), 1780 µg/mL; in data set [2] (50% Acetone), 10660 µg/mL; in data set [2] (50% EtOH), 3820 µg/mL; in data set [2] (50% IPA) it was 4390 µg/mL. Moreover, the Solubility came to 3860 µg/mL in data set [2] (75% EtOH), 2290 µg/mL in data set [2] (75% IPA) and 61 µg/mL in data set [2] (Acetone). In addition, the “log P (log Ko/w)” value in data set [3] is listed as −4.34. For the same compound, the Hygroscopicity result in data set [4] (0 to 95% RH under nitrogen flow) is reported as “not hygroscopic”. In addition, the Moisture reversibly adsorbed result in data set [4] (75% RH) is “approximately 1%”. Moreover, in data set [5] (suspended in aqueous ethanol for seven days at RT), the “Change in crystal structure (XRPD)” value is listed as “No change in crystal structure”.

As to `CS(=O)(=O)N1CCN(Cc2ccc3[nH]c(-c4cc5ccccc5[nH]c4=O)cc3c2)CC1.Cl` [Form E, hydrochloride salt of 3-[5-(4-methanesulfonyl-piperazin-1-ylmethyl)-1H-indol-2-yl]-1H-quinolin-2-one], the “Solid form after slurry” value in data set [5] (slurry in water at room temperature for seven days) is on record as “provided Form D crystalline solid”.
